Measured values as given in ChEMBL document CHEMBL1156078, “Structure-activity relationship (SAR) studies of 3-(2-amino-ethyl)-5-(4-ethoxy-benzylidene)-thiazolidine-2,4-dione: development of potential substrate-specific ERK1/2 inhibitors” (Bioorg Med Chem Lett, 2009).
Each block holds one molecule with its values, some of them ahead of it. Calls of active or inactive are those of the source. The rule behind the calls is not given here.

What was measured:
[1] = biological target: T1, ETS domain-containing protein Elk-1 (Homo sapiens) (UniProt P19419); assay: Inhibition of Elk1 phosphorylation in PMA-stimulated human U937 cells at 50 uM after 3 hrs by Western blotting; type: cell-based; details: U-937
T1 sequence (whole entry): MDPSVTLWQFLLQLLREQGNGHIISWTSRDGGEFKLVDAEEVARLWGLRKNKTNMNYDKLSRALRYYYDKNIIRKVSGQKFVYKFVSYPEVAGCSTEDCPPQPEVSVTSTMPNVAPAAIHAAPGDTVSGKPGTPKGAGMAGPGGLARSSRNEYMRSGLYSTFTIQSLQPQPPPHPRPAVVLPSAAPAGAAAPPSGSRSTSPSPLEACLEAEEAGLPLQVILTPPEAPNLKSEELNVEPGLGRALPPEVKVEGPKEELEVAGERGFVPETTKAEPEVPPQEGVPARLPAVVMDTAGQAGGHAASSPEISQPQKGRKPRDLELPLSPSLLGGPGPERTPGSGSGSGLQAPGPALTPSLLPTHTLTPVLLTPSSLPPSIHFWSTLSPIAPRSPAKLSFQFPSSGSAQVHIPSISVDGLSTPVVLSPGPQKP

[2] = biological target: MAP kinase p38 (Homo sapiens) (UniProt O15264+Q15759+Q16539+P53778); assay: Inhibition of p38 phosphorylation in PMA-stimulated human U937 cells at 50 uM after 3 hrs by Western blotting; type: cell-based; details: U-937
[3] = biological target: T2, Mitogen-activated protein kinase; ERK1/ERK2 (Homo sapiens) (UniProt P27361+P28482); assay: Inhibition of ERK1/2 phosphorylation in PMA-stimulated human U937 cells at 50 uM after 3 hrs by Western blotting; type: cell-based; details: U-937
[4] = biological target: Ribosomal protein S6 kinase alpha-1 (Homo sapiens) (UniProt Q15418); assay: Inhibition of Rsk1 phosphorylation in PMA-stimulated human U937 cells at 50 uM after 3 hrs by Western blotting; type: cell-based; details: U-937
[5] = biological target: Dual specificity mitogen-activated protein kinase kinase; MEK1/2 (Homo sapiens) (UniProt P36507+Q02750); assay: Inhibition of MEK1/2 phosphorylation in PMA-stimulated human U937 cells at 50 uM after 3 hrs by Western blotting; type: cell-based; details: U-937
U-937 [6] = assay: Induction of apoptosis in human U937 assessed as loss of mitochondrial membrane potential after 18 hrs by DiOC6 uptake assay; type: functional, cell-based
[7] = biological target: Ribosomal protein S6 kinase alpha-1 (Homo sapiens) (UniProt Q15418); assay: Inhibition of Rsk1 phosphorylation in PMA-stimulated human U937 cells at 10 to 50 uM after 3 hrs by Western blotting; type: cell-based; details: U-937
[8] = biological target: T2, Mitogen-activated protein kinase; ERK1/ERK2 (Homo sapiens); assay: Inhibition of ERK1/2 phosphorylation in PMA-stimulated human U937 cells at 10 to 50 uM after 3 hrs by Western blotting; type: cell-based; details: U-937
[9] = biological target: Mitogen-activated protein kinase 1 (Homo sapiens) (UniProt P28482); assay: Inhibition of recombinant ERK2-mediated myelin basic protein phosphorylation at 50 uM after 30 mins by SDS-PAGE
[10] = biological target: T2, Mitogen-activated protein kinase; ERK1/ERK2 (Homo sapiens); assay: Inhibition of ERK1/2 phosphorylation in EGF-stimulated human SKOV3 cells; type: cell-based; details: SK-OV-3
[11] = Inhibition of JNK phosphorylation
[12] = Inhibition of MEK phosphorylation
U-937 [13] = assay: Cytotoxicity against human U937 cells assessed as cell viability up to 30 uM after 24 hrs by MTT assay; type: functional, cell-based
U-937 [14] = assay: Antiproliferative activity human U937 cells by [3H]thymidine incorporation assay; type: functional, cell-based

T2 sequence (P27361 whole entry, looked up): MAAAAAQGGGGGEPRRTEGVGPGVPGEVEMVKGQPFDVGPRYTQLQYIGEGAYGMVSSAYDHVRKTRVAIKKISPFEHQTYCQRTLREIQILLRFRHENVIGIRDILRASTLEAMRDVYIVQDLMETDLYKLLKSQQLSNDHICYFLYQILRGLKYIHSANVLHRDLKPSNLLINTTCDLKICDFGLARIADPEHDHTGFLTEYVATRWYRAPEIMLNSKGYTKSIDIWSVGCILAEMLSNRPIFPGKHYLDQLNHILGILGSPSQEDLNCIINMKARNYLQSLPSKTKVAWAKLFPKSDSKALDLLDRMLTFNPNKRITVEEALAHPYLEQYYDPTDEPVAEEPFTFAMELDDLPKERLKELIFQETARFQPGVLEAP
T2 sequence (P28482 whole entry, looked up): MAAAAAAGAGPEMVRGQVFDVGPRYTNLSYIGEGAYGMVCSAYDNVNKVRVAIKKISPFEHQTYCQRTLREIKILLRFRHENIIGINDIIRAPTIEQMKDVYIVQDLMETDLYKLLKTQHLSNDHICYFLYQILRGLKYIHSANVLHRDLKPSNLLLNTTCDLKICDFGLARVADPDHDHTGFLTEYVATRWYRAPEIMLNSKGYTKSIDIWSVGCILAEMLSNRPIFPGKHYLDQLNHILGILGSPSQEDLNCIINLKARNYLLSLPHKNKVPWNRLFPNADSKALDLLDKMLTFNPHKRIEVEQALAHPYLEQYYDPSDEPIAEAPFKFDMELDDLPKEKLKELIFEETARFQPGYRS
Chain of Ribosomal protein S6 kinase alpha-1 (Homo sapiens) (Q15418 whole entry): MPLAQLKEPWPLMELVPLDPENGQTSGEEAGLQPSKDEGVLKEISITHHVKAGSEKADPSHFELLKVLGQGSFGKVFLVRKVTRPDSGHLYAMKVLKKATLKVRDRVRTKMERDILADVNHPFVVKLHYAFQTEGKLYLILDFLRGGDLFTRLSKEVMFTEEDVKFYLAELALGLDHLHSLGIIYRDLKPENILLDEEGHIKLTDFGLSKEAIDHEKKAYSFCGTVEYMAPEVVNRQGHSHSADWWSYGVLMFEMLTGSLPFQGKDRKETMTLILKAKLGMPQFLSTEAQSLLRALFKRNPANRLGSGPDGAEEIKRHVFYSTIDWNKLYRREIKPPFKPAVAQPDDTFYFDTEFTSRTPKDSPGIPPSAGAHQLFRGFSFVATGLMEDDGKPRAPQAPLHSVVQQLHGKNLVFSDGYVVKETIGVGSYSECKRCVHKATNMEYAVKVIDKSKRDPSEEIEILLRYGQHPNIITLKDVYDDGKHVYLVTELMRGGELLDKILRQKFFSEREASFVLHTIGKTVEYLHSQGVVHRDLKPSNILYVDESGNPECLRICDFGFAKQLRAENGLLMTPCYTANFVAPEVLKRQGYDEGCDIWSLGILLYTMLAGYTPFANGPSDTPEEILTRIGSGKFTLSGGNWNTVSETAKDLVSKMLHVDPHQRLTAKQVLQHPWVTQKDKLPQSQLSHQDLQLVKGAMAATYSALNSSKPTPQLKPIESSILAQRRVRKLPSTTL
Chain of Mitogen-activated protein kinase 1 (Homo sapiens) (P28482 whole entry): as the sequence (P28482 whole entry, looked up) above
Chain of Dual specificity mitogen-activated protein kinase kinase; MEK1/2 (Homo sapiens) (P36507 whole entry, looked up): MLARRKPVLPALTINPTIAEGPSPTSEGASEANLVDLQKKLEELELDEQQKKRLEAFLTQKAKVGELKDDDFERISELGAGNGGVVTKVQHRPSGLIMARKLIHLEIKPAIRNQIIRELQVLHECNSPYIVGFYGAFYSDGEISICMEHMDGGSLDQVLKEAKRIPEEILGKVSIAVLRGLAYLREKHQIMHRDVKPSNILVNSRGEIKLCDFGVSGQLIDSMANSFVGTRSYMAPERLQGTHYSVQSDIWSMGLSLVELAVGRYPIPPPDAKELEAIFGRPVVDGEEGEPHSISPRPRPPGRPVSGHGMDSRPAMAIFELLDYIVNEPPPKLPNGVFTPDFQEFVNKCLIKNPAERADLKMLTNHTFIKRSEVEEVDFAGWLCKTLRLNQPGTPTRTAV
Chain of Dual specificity mitogen-activated protein kinase kinase; MEK1/2 (Homo sapiens) (Q02750 whole entry, looked up): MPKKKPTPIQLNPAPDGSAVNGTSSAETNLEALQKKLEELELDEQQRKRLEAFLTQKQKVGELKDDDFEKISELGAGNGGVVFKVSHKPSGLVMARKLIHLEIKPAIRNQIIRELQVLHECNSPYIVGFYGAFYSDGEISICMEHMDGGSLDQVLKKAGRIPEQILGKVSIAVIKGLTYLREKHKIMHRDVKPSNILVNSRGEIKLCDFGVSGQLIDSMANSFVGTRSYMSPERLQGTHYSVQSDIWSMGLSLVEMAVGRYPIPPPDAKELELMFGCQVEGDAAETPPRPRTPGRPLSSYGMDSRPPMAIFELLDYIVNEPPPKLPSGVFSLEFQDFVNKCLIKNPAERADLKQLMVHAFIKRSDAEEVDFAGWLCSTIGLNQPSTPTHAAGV

inhibition [1]: Active | inhibition [2]: Active | inhibition [3]: Active | inhibition [4]: Active | inhibition [5]: Active
SMILES: NCCN1C(=O)S/C(=C\c2cccc3ccccc23)C1=O
Activity (U-937 [6]): inactive

inhibition [7]: inactive
SMILES: CCOc1ccc(/C=C2\SC(=O)N(CCN(C)C)C2=O)cc1

inhibition [7]: inactive | inhibition [8]: inactive
SMILES: NCCN1C(=O)S/C(=C\c2ccccc2)C1=O

inhibition [7]: inactive | inhibition [8]: inactive
SMILES: COc1ccc(/C=C2\SC(=O)N(CCN)C2=O)cc1

inhibition [7]: inactive | inhibition [8]: inactive
SMILES: Cc1ccc(/C=C2\SC(=O)N(CCN)C2=O)cc1

inhibition [7]: inactive | inhibition [8]: inactive
SMILES: CCOc1cccc(/C=C2\SC(=O)N(CCN)C2=O)c1

inhibition [7]: inactive
SMILES: NCCN1C(=O)S/C(=C\c2cccc([N+](=O)[O-])c2)C1=O

inhibition [1]: Active | inhibition [2]: inactive | inhibition [3]: Active | inhibition [4]: Active
SMILES: CN(C)CCN1C(=O)S/C(=C\C/C=C/c2ccccc2)C1=O

inhibition [1]: Active | inhibition [2]: Active | inhibition [3]: Active | inhibition [4]: Active | inhibition [5]: Active
SMILES: NCCN1C(=O)S/C(=C\c2ccc3c(c2)OCCO3)C1=O
Activity (U-937 [6]): inactive

inhibition [2]: inactive | inhibition [9]: inactive | inhibition [3]: inactive | inhibition [10]: inactive | inhibition [11]: inactive | inhibition [12]: inactive | inhibition [4]: Active
SMILES: CCOc1ccc(/C=C2\SC(=O)N(CCN)C2=O)cc1
Activity (U-937 [13]): inactive

inhibition [1]: Active | inhibition [2]: inactive | inhibition [7]: Active | inhibition [9]: inactive | inhibition [8]: inactive | inhibition [10]: inactive | inhibition [11]: inactive | inhibition [12]: inactive
SMILES: CCOc1ccccc1/C=C1\SC(=O)N(CCN)C1=O
Activity (U-937 [14]): Dose-dependent effect | Activity (U-937 [13]): inactive | Activity (U-937 [6]): Dose-dependent effect

inhibition [7]: inactive
SMILES: NCCN1C(=O)S/C(=C\c2cccc(F)c2)C1=O

inhibition [7]: inactive
SMILES: CCOc1ccc(/C=C2\SC(=O)N(CCNC(C)=O)C2=O)cc1

inhibition [7]: Active | inhibition [8]: inactive
SMILES: NCCN1C(=O)S/C(=C\c2ccc(-c3ccc(Cl)cc3)cc2)C1=O

inhibition [3]: inactive
SMILES: NCCN1C(=O)S/C(=C\[C@H](O)[C@@H](O)c2ccccc2)C1=O

inhibition [7]: inactive
SMILES: NCCN1C(=O)S/C(=C\c2ccc(F)cc2)C1=O

inhibition [7]: inactive
SMILES: NCCN1C(=O)S/C(=C\c2ccc([N+](=O)[O-])cc2)C1=O
